The source of these data is patent US11696895B2, “Fine particle coating (drug-containing hollow particle and method for manufacturing same)” (Sumitomo Pharma Co., Ltd., priority 2017, dated 2023).

The nature of series [1]: Particle size distribution (laser diffraction, volume based). The class given is physicochemical. The note with it: Table 2-2 particle sizes. As to the method: As used herein, “mean particle size” refers to cumulative 50% point of particle size D50 in volume based measurement of powder particles. Such a mean particle size is measured based on volume with a laser diffraction particle size distribution analyzer (e.g., Powrex Corp: […] VIEWER, Shimadzu Corp: SALD-3000J, or […]: HELOS & RODOS).
The particle size distribution of components of interest, macromolecules, other additives, mixed powder of components of interest and other additives, resulting coated component of interest-containing hollow particles, and coatable microparticles was measured based on volume with a laser diffraction particle size distribution analyzer (e.g., Powrex Corp: […] VIEWER or […]: HELOS & RODOS).

The nature of series [2]: Dissolution test (paddle method, revised 16th Japanese Pharmacopoeia), HPLC. It is filed as physicochemical. The conditions noted are these: 50% dissolution time after coating / before coating (uncoated nucleus). As to the method:
Dissolution tests were conducted using the tablets manufactured in Comparative Example 2 and Example 2. Water of 37° C./900 ML was used as the test solution for measurement at a number of rotations of 50 RPM based on the paddle method of a dissolution test method in the revised 16th Japanese Pharmacopoeia. The measurement times were 10, 15, 30, 45, 60, 90, 120, 360, 720, 1080, and 1440. The sampling solution was filtered and measured by HPLC to calculate the dissolution rate.
<HPLC Measurement Conditions> • Detector: ultraviolet visible spectrophotometer • Measurement wavelength: 285 NM • Column: WATERS ACQUITY UPLC C18 [2.1 MM Φ×30 MM] • Colum temperature: 40° C. • Amount of flow: 0.5 ML/MIN • Amount injected: […] • Sample cooler: 25° C. • Syringe cleansing solution: water/acetonitrile mixture=1/1 • Mobile phase: water/acetonitrile mixture=4/1
A dissolution test was conducted using the particles manufactured in Example 4 and particles manufactured in Comparative Example 1. The test conditions were the same as Test Example 1.
A dissolution test was conducted using the coated component of interest-containing hollow particles manufactured in Example 5. The test conditions were the same as Test Example 1. […] The dissolution time was extended by a factor of 2 or greater. Improvement in the ability to control release of macromolecules constituting nuclear particles was confirmed for all coated component of interest-containing hollow particles using water insoluble particles as coatable microparticles.
A dissolution test was conducted using the particles manufactured in Example 7-2 and tablets manufactured in Example 8-1 and Comparative Examples 8-1 and 8-2. The test conditions were the same as in Test Example 1.
A dissolution test was conducted using the particles manufactured in Example 11 and Comparative Example 11. The test conditions were the same as Test Example 1.
A dissolution test was conducted using the particles manufactured in Comparative Example 12B. The test conditions were the same as Test Example 1.

Structures are written as SMILES. Some results are limits rather than exact numbers.

In series [1], `NS(=O)(=O)Cc1noc2ccccc12` [Compound A, 1,2-BENZISOXAZOLE-3-METHANESULFONAMIDE] gave a D10 of 0.73 µm, a D50 of 1.99 µm and a D90 of 5.16 µm.

Regarding `COc1cc(N)c(Cl)cc1C(=O)NC[C@H]1CN(CC2CCN(C(=O)CO)CC2)CCO1` [Compound D], the “Ratio of 50% dissolution time with respect to nucleus (JP 1st)” value (shortened to “Ratio of 50% dissolution time”) in series [2] is listed as at least 63.

For `CC(=O)Nc1ccc(O)cc1` [Compound E, N-(4-HYDROXYPHENYL)ACETAMIDE], the “Ratio of 50% dissolution time” value in series [2] is given as at least 21.

Consider `Cn1c(=O)c2c(ncn2C)n(C)c1=O` [Compound F, 1,3,7-TRIMETHYLPURINE-2,6-DIONE], for which the “Ratio of 50% dissolution time” value in series [2] was at least 235.
